Experiment: method code SF, from DOI: 10.1016/0360-3016(89)90899-7, PMID: 2703405
Settings: pH 7.4

logD	Structure (SMILES)
0.2	Cc1ccc2c(c1)[n+]([O-])nc(N)[n+]2[O-]
0.76	C=CCOc1ccc2c(c1)[n+]([O-])nc(N)[n+]2[O-]
-0.6	CC(=O)Nc1n[n+]([O-])c2ccccc2[n+]1[O-]

Second part, the compound before the results:

Structure (SMILES)	logD
CC(=O)Nc1n[n+]([O-])c2cc(C)ccc2[n+]1[O-]	-0.4
Nc1n[n+]([O-])c2ccc(Cl)cc2[n+]1[O-]	0.41
Nc1n[n+]([O-])c2ccccc2[n+]1[O-]	-0.3
COc1n[n+]([O-])c2ccccc2[n+]1[O-]	-0.3
COc1ccc2c(c1)[n+]([O-])c(N)n[n+]2[O-]	0
CC(=O)CC(=O)Nc1n[n+]([O-])c2ccccc2[n+]1[O-]	-1.4
Nc1n[n+]([O-])c2cc(OCC(O)CO)ccc2[n+]1[O-] (stereo unspecified)	-1.1
[O-][n+]1cn[n+]([O-])c2ccccc21	-0.8

From the SangsterLogP compilation
